Laboratory results: US20100105745A1, “Suppression of cancer and method for evaluating anticancer agent based on the effect of inhibiting gsk3 beta” (priority 2005, published 2010)

Columns and labels:
[1] = target: GSK3β immunoprecipitated from colon cancer cell lines (SW480 and HCT116) (Homo sapiens, UniProt P49841); assay: Non-radioisotopic in vitro GSK3β enzyme activity assay; assay type: biochemical; conditions: 25 μM, compared with DMSO, FIG. 19
Method: First, a specific anti-GSK3β antibody and beads (resins) are added to a cell extract and then the GSK3β protein is immunoprecipitated (S in FIG. 16). As a negative control (control), non-specific mouse IgG with the same concentration is added to the same type of cell extract (C in FIG. 16). Next, in the presence of a kinase buffer, a recombinant human β-catenin protein (substrate) and nonradioactive ATP (P in FIG. 16) are added, and then a phosphorylation reaction is performed. Subsequently, the reaction solution is analyzed by the Western blot method. A phosphorylated human β-catenin protein is detected using an anti-phosphorylate β-catenin peptides antibody. […] In accordance with the methods in <Example 1>, the protein was extracted from each cell line using a cell lysis buffer (0.2 M Tris-HCl pH 7.5, 1.5 M NaCl, 10 mM EDTA, 10 mM EGTA, 10% Triton X-100, 25 mM sodium pyrophosphate, 10 mM β-glyceophosphate, 10 mM Na3VO4, and Protease inhibitors cocktail [Sigma-Aldrich]). […] Next, GSK3β and the recombinant human β-catenin protein in the reaction solutions were similarly detected by the Western blot method. […] These reaction solutions were similarly analyzed by the Western blot method.

[2] = tested on: glioblastoma cell line (A172, T98G, U251, and U87); assay: WST-8 viable cell assay; assay type: cell-based, human; conditions: 5-50 μM, compared with DMSO, FIGS. 9, 10A
Method: In this example, 4 types of glioblastoma cell line (A172, T98G, U251, and U87 purchased from American Type Culture Collection [ATCC, Manassas, Va.]) and human embryonic kidney cells HEK293 were used as subjects. The expression of GSK3β and the expression of its fractions that had undergone phosphorylation in these cell lines were analyzed in accordance with <Example 1>. Furthermore, the effects of a known GSK3β inhibitor (AR-A014418 or SB-216763) on the survival, proliferation, and apoptosis of tumor cells were analyzed in a manner similar to that in the case of colon cancer cells. […] Number of viable cells and apoptosis frequencies were measured over time. As controls, number of viable cells and apoptosis frequencies were also measured for cells that had been cultured after addition of the same amount of DMSO. In addition, unlike <Example 1>, a WST-8** assay kit (Cell Counting Kit-8, Wako, Osaka) and a microplate reader produced by Bio-Rad Laboratories, Inc. (Hercules, Calif.) were used for measurement of number of viable cells. Furthermore, regarding cell fractions during the proliferation phase, the number of cells incorporating bromodeoxy uridine (BrdU) was measured using a Cell Proliferation ELISA BrdU Kit (Roche, Panzberg, Germany), and then the influence of the GSK3β inhibitor (AR-A014418 or SB-216763) on the proliferation of tumor cells was analyzed.

HEK293 cells [3] = assay: MTS viable cell assay (cell survival); assay type: cell-based, human; conditions: FIG. 4A
Method: (§1) Each colon cancer cell line and HEK293 cells were seeded at 3×10^3 cells per well of 96-well culture plates and then cultured overnight in corresponding media (this day was designated day 0). Known GSK3β inhibitors, AR-A014418 (N-(4-methoxybenzyl)-N′-(5-nitro-1,3-thiazol-2-yl)urea, Calbiochem) and SB-216763 (3-(2,4-dichlorophenyl)-4-(1-methyl-1H-indol-3-yl)-1H-pyrrole-2,5-dione, Sigma-Aldrich) were dissolved in dimethyl sulfoxide (DMSO). On day 0, the medium for each cell line were exchanged and then AR-A014418 or SB-216763 was added to the medium to different concentrations (5, 10, 25, and 50 μM). As controls, samples prepared by adding AR-A014418 or SB-216763 to the same concentrations to wells containing no cells and a sample prepared by adding DMSO alone to a well containing cells were analyzed simultaneously.
(§2) At time points after indicated lengths of the times (24, 48, 72, and 96 hours) had elapsed from day 0, the number of viable cells in each well was measured using an MTS* viable cell measurement kit (CellTiter 96™ Aqueous, Promega Corp) in accordance with the protocols of Promega. Practically, 20 μL of an MTS mixture solution that had been prepared immediately before addition was added to each well, followed by three hours of reaction at 37° C. under 5% CO2 wet conditions. Absorbance at a wavelength of 490 nm was measured using a THERMOmax microplate reader (Molecular Devices). The number of cells of each cell line (in 6 wells for treatment by each concentration of AR-A014418 or SB-216763) was measured, and the average absorbance was calculated to determine the number of viable cells.

[4] = tested on: Colon cancer cell lines (SW480 and HCT116); assay: MTS viable cell assay (cell survival); assay type: cell-based, human; conditions: 5, 10, 25, and 50 μM, 24-96 hours, FIG. 4A
Method: as §1, §2

HEK293 cells [5] = assay: Apoptosis (Hoechst staining) and proliferation (PCNA labeling index) by double staining; assay type: cell-based, human; conditions: for changes in apoptosis frequency: FIG. 4C; for changes in cellular proliferation rates (PCNA labeling index): FIG. 4D
Method: (§3) A, B, and E: The number of viable cells in each well as measured by MTS assay at points in time at which the indicated lengths of the time (24, 48, 72, and 96 hours) had elapsed since day 0. C and D: The proportion (D) of proliferating cells' nuclei (PCNA positive) in all the cells observed or the proportion (C) of nuclei undergoing apoptosis in all the cells observed when the cells were subjected to double staining by an immunofluorescence method using an anti-PCNA (proliferating cell nuclear antigen) antibody and Hoechst and then observed under a fluorescence microscope.

colon cancer cells = assay: as above; assay type: cell-based, human; conditions: for cellular proliferation rates (PCNA labeling index): FIG. 4D; for apoptosis frequency: Hoechst staining, FIG. 4C
Method: as §3

HEK293 cells [6] = assay: Cellular senescence by x-gal staining; assay type: cell-based, human; conditions: 25 μM, 72 hours, compared with DMSO
Method: (§4) In accordance with <Example 1>, each colon cancer cell line (SW480 and HCT116) and a non-cancer cell line (human embryonic kidney cells HEK293) were treated with a 25 μM GSK3β inhibitor (AR-A014418 or SB-216763) or GSK3β-specific RNA interference. As controls, DMSO was administered to these cells or the cells were treated with non-specific RNA interference. Subsequently, the frequency of senescent cells in control cells was compared with that in the corresponding cells in which GSK3β had been inhibited and then the result was analyzed. Furthermore, human telomerase reverse transcriptase (hTERT) mRNA expression that is a molecular indication of cell immortalization and changes in telomerase activity in these cells were compared and analyzed over time. Senescent cells were determined as cells found to be positive for x-gal staining that is an indicator of (3-galactosidase activity. Practically, for this staining, cells cultured on cover glasses were washed with phosphate buffered saline (PBS) and then fixed using a citrate.phosphate fixation solution (0.1 M citric acid, 0.2 M Na2HPO4, pH 6.0) at room temperature for 5 minutes. Subsequently, cells were washed twice with PBS and then caused to react using a x-gal staining solution (1 mg/mL x-gal [Sigma-Aldrich], 5 mM K3Fe[CN]6, 2 mM MgCl2, 150 mM NaCl, 30 mM citrate.phosphate buffer, and 5 mM K4Fe[CN]6) at 37° C. for 20 hours. Stained cells were washed with PBS and then fixed again with 4% paraformaldehyde. X-gal staining positive cells were identified by observation under a light microscope. The frequency of senescent cells was determined by observing 5 high-power fields and measuring and calculating the average frequency of x-gal staining positive cells in the total number of cells (approximately 100 cells) in each field.

[7] = tested on: colon cancer cell line (SW480 and HCT116); assay: Cellular senescence by x-gal staining; assay type: cell-based, human; conditions: colon cancer cell lines; 25 μM; 72 hours; compared with DMSO; FIGS. 11 and 12
Method: as §4

[8] = tested on: glioblastoma cell line (A172, T98G, U251, and U87); assay: Cell Proliferation ELISA BrdU incorporation; assay type: cell-based, human; conditions: glioblastoma cells; FIG. 10C
Method: Each cell line was cultured overnight and then cultured in medium to which AR-A014418 or SB-216763 dissolved in DMSO had been added to predetermined concentrations (5 μM, 10 μM, 25 μM or 40 μM, and 50 μM). Number of viable cells and apoptosis frequencies were measured over time. As controls, number of viable cells and apoptosis frequencies were also measured for cells that had been cultured after addition of the same amount of DMSO. In addition, unlike <Example 1>, a WST-8** assay kit (Cell Counting Kit-8, Wako, Osaka) and a microplate reader produced by Bio-Rad Laboratories, Inc. (Hercules, Calif.) were used for measurement of number of viable cells. Furthermore, regarding cell fractions during the proliferation phase, the number of cells incorporating bromodeoxy uridine (BrdU) was measured using a Cell Proliferation ELISA BrdU Kit (Roche, Panzberg, Germany), and then the influence of the GSK3β inhibitor (AR-A014418 or SB-216763) on the proliferation of tumor cells was analyzed.

[9] = tested on: human telomerase reverse transcriptase (hTERT) in colon cancer cell lines (SW480 and HCT116); assay: hTERT mRNA expression by RT-PCR; assay type: cell-based; conditions: 25 μM inhibitor, 72 or 96 hours, FIG. 13
Method: (§5) In accordance with <Example 1>, each colon cancer cell line (SW480 and HCT116) and a non-cancer cell line (human embryonic kidney cells HEK293) were treated with a 25 μM GSK3β inhibitor (AR-A014418 or SB-216763) or GSK3β-specific RNA interference. As controls, DMSO was administered to these cells or the cells were treated with non-specific RNA interference. Subsequently, the frequency of senescent cells in control cells was compared with that in the corresponding cells in which GSK3β had been inhibited and then the result was analyzed. Furthermore, human telomerase reverse transcriptase (hTERT) mRNA expression that is a molecular indication of cell immortalization and changes in telomerase activity in these cells were compared and analyzed over time.
(§6) hTERT mRNA expression was analyzed by extracting total RNA from subject cells and then performing the RT-PCR method. An upstream primer (5′-[…]-3′: SEQ ID NO: 3) and a downstream primer (5′-GGATGAAGCGGAGTCTGGA-3′: SEQ ID NO: 4) were used for RT-PCR. The hTERT gene was amplified by performing 36 or 38 cycles of an RT-PCR program (15 seconds at 94° C., 10 seconds at 55° C., and 9 seconds at 72° C.). Telomerase activity was detected in accordance with recommended protocols using a commercial kit (TRAPEZE® Telomerase Detection Kit, Chemicon International). hTERT expression levels and telomerase activity in GSK3β-inhibited cells and control cells were determined via measurement and quantification of signals on electrophoresis using a densitometer (NIH Image Software), followed by comparison and analysis thereof.

[10] = tested on: human telomerase reverse transcriptase (hTERT) in HEK293 cells; assay: hTERT mRNA expression by RT-PCR; assay type: cell-based; conditions: 25 μM inhibitor, FIG. 13
Method: as §5, §6

HEK293 cells [11] = assay: Apoptosis frequency; assay type: cell-based, human; conditions: compared with DMSO, FIG. 10B
Method: (§7) In this example, 4 types of glioblastoma cell line (A172, T98G, U251, and U87 purchased from American Type Culture Collection [ATCC, Manassas, Va.]) and human embryonic kidney cells HEK293 were used as subjects. The expression of GSK3β and the expression of its fractions that had undergone phosphorylation in these cell lines were analyzed in accordance with <Example 1>. Furthermore, the effects of a known GSK3β inhibitor (AR-A014418 or SB-216763) on the survival, proliferation, and apoptosis of tumor cells were analyzed in a manner similar to that in the case of colon cancer cells. Each cell line was cultured overnight and then cultured in medium to which AR-A014418 or SB-216763 dissolved in DMSO had been added to predetermined concentrations (5 μM, 10 μM, 25 μM or 40 μM, and 50 μM). Number of viable cells and apoptosis frequencies were measured over time. As controls, number of viable cells and apoptosis frequencies were also measured for cells that had been cultured after addition of the same amount of DMSO. In addition, unlike <Example 1>, a WST-8** assay kit (Cell Counting Kit-8, Wako, Osaka) and a microplate reader produced by Bio-Rad Laboratories, Inc. (Hercules, Calif.) were used for measurement of number of viable cells. Furthermore, regarding cell fractions during the proliferation phase, the number of cells incorporating bromodeoxy uridine (BrdU) was measured using a Cell Proliferation ELISA BrdU Kit (Roche, Panzberg, Germany), and then the influence of the GSK3β inhibitor (AR-A014418 or SB-216763) on the proliferation of tumor cells was analyzed.

[12] = tested on: glioblastoma cell line (A172, T98G, U251, and U87); assay: Apoptosis frequency; assay type: cell-based, human; conditions: glioblastoma cells; compared with DMSO; FIG. 10B
Method: as §7

[13] = tested on: telomerase activity in HEK293 cells; assay: Telomerase activity (TRAPEZE Telomerase Detection Kit); assay type: cell-based, human; conditions: 25 μM inhibitor, FIG. 14
Method: as §5, §6

[14] = tested on: telomerase activity in colon cancer cell lines (SW480 and HCT116); assay: as above; assay type: cell-based, human; conditions: 25 μM inhibitor, 72 or 96 hours, FIG. 14
Method: as §5, §6

GSK3β immunoprecipitated from colon cancer cell lines (SW480 and HCT116), sequence (P49841 whole entry): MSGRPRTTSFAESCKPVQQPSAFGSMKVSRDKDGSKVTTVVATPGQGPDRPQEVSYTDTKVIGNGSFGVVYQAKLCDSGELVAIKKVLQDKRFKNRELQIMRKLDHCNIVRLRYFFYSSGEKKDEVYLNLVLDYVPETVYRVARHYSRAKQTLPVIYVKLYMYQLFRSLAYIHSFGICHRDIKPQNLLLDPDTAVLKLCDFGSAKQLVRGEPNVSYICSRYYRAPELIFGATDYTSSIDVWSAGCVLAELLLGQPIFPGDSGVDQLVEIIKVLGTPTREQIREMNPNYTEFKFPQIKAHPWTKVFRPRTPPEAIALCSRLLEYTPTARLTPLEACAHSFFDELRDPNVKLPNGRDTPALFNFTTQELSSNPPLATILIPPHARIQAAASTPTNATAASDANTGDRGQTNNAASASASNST

Row | SMILES | GSK3β activity (phosphorylation of recombinant human β-catenin) [1] | number of viable cells [2] | effect to suppress cell survival (HEK293 cells [3]) | survival (rate) of cells [4] | changes in apoptosis frequency (HEK293 cells [5]) | changes in cellular proliferation rates (PCNA labeling index) (HEK293 cells [5]) | cellular proliferation rates (PCNA labeling index) (colon cancer cells) | apoptosis frequency (colon cancer cells) | frequency of senescent cells (x-gal staining positive) (HEK293 cells [6]) | frequencies of senescent cells (x-gal staining positive) [7] | proliferation (BrdU incorporated) [8] | hTERT expression [9] | hTERT expression [10] | apoptosis (HEK293 cells [11]) | apoptosis [12] | telomerase activity [13] | telomerase activity [14]
1 | COc1ccc(CNC(=O)Nc2ncc([N+](=O)[O-])s2)cc1 [AR-A014418, N-(4-methoxybenzyl)-N′-(5-nitro-1,3-thiazol-2-yl)urea] | completely inhibited | decreased in a manner depending on the concentration of each inhibitor | not observed | decreased in a manner depending on the dose | minimal | minimal | lowered | increased | no significant differences | significantly increased | suppressed | suppressed | neither changes in hTERT expression | mildly induced by the addition of the GSK3β inhibitor to the medium, but no significant differences were observed | significantly induced | nor suppression of telomerase activity | suppressed
2 | Cn1cc(C2=C(c3ccc(Cl)cc3Cl)C(=O)NC2=O)c2ccccc21 [SB-216763, 3-(2,4-Dichlorophenyl)-4-(1-methyl-1H-indol-3-yl)-1H-pyrrole-2,5-dione] | completely inhibited | decreased in a manner depending on the concentration of each inhibitor | not observed | decreased in a manner depending on the dose | minimal | minimal | lowered | increased | no significant differences | significantly increased | suppressed | suppressed | neither changes in hTERT expression | mildly induced by the addition of the GSK3β inhibitor to the medium, but no significant differences were observed | significantly induced | nor suppression of telomerase activity | suppressed
